Reference: US3955959A, “Herbicide for use in transplanted rice” (priority 1974, dated 1976)

Tests used:
Format in all cases: in vivo
Lp (Lindernia pyxidaria) = test: Example 6 weed control, JAAPR, Japan
Protocol: (§1) In this example, the efficacy of Herbicide A is presented for a variety of weeds in the presence of ordinary and infant transplant rice. In this example, tests were conducted at the said JAAPR Lab at different times of the year. "Early season" transplants were made in April and "Normal season" transplants were made in July. The size of the transplants at the respective seasons were: Season Seedling Type Plant Height (cm) Leaf Stage ______________________________________ Early Ordinary 16.5 4.5 Early Infant 9.1 2.4 Normal Ordinary 41.7 5.3 Normal Infant 14.7 1.9 ______________________________________
(§2) Duplicate treatments were used. At the time of application of the herbicide, the status of the grass (EC) was as follows: […]

Sp (Sagittaria pygmaea) = test: Example 6 weed control, JAAPR, Japan; conditions: Normal season
Protocol: as §1, §2

Sh (Scirpus hotarui) = test: Example 6 weed control, JAAPR, Japan; conditions: Normal season
Protocol: as §1, §2

[1] = system: transplanted rice seedlings; test: Example 6 rice seedling injury
Protocol: as §1, §2

[2] = Early season, ordinary, 1.0 kg/ha, 3 DAT
[3] = Early season, ordinary, 1.0 kg/ha, 12 DAT
[4] = Early season, ordinary, 1.0 kg/ha, -2 DAT
[5] = Early season, ordinary, .5 kg/ha, 3 DAT
[6] = Early season, ordinary, .5 kg/ha, 12 DAT
[7] = Early season, ordinary, .5 kg/ha, -2 DAT
[8] = Normal season, infant, 1.0 kg/ha, 3 DAT
[9] = Normal season, infant, 1.0 kg/ha, 7 DAT
[10] = Normal season, infant, 1.0 kg/ha, -2 DAT
[11] = Normal season, infant, .5 kg/ha, 3 DAT
[12] = Normal season, infant, .5 kg/ha, 7 DAT
[13] = Normal season, infant, .5 kg/ha, -2 DAT
[14] = Normal season, ordinary, 1.0 kg/ha, 3 DAT
[15] = Normal season, ordinary, 1.0 kg/ha, 7 DAT
[16] = Normal season, ordinary, 1.0 kg/ha, -2 DAT
[17] = Normal season, ordinary, .5 kg/ha, 3 DAT
[18] = Normal season, ordinary, .5 kg/ha, 7 DAT
[19] = Normal season, ordinary, .5 kg/ha, -2 DAT

CCCCOCN(C(=O)CCl)c1c(C)cccc1C(C)(C)C [Herbicide A, n-(butoxymethyl)-6'-tert-butyl-2-chloro-o-acetotoluidide]
% Weed Control (Lp) (Lp (Lindernia pyxidaria); [2]): 100% | % Weed Control (Lp) (Lp (Lindernia pyxidaria); [3]): 95% | % Weed Control (Lp) (Lp (Lindernia pyxidaria); [4]): 100% | % Weed Control (Lp) (Lp (Lindernia pyxidaria); [5]): 100% | % Weed Control (Lp) (Lp (Lindernia pyxidaria); [6]): 85% | % Weed Control (Lp) (Lp (Lindernia pyxidaria); [7]): 100% | % Weed Control (Lp) (Lp (Lindernia pyxidaria); [8]): 100% | % Weed Control (Lp) (Lp (Lindernia pyxidaria); [9]): 100% | % Weed Control (Lp) (Lp (Lindernia pyxidaria); [10]): 100% | % Weed Control (Lp) (Lp (Lindernia pyxidaria); [11]): 100% | % Weed Control (Lp) (Lp (Lindernia pyxidaria); [12]): 100% | % Weed Control (Lp) (Lp (Lindernia pyxidaria); [13]): 100% | % Weed Control (Lp) (Lp (Lindernia pyxidaria); [14]): 100% | % Weed Control (Lp) (Lp (Lindernia pyxidaria); [15]): 100% | % Weed Control (Lp) (Lp (Lindernia pyxidaria); [16]): 100% | % Weed Control (Lp) (Lp (Lindernia pyxidaria); [17]): 100% | % Weed Control (Lp) (Lp (Lindernia pyxidaria); [18]): 100% | % Weed Control (Lp) (Lp (Lindernia pyxidaria); [19]): 100% | % Weed Control (Sp) (Sp (Sagittaria pygmaea); infant, 1.0 kg/ha, 3 DAT): < 40% | % Weed Control (Sp) (Sp (Sagittaria pygmaea); infant, 1.0 kg/ha, 7 DAT): < 40% | % Weed Control (Sp) (Sp (Sagittaria pygmaea); infant, 1.0 kg/ha, -2 DAT): < 40% | % Weed Control (Sp) (Sp (Sagittaria pygmaea); infant, .5 kg/ha, 3 DAT): < 40% | % Weed Control (Sp) (Sp (Sagittaria pygmaea); infant, .5 kg/ha, 7 DAT): < 40% | % Weed Control (Sp) (Sp (Sagittaria pygmaea); infant, .5 kg/ha, -2 DAT): < 40% | % Weed Control (Sp) (Sp (Sagittaria pygmaea); ordinary, 1.0 kg/ha, 3 DAT): < 40% | % Weed Control (Sp) (Sp (Sagittaria pygmaea); ordinary, 1.0 kg/ha, 7 DAT): < 40% | % Weed Control (Sp) (Sp (Sagittaria pygmaea); ordinary, 1.0 kg/ha, -2 DAT): < 40% | % Weed Control (Sp) (Sp (Sagittaria pygmaea); ordinary, .5 kg/ha, 3 DAT): < 40% | % Weed Control (Sp) (Sp (Sagittaria pygmaea); ordinary, .5 kg/ha, 7 DAT): < 40% | % Weed Control (Sp) (Sp (Sagittaria pygmaea); ordinary, .5 kg/ha, -2 DAT): < 40% | % Weed Control (Sh) (Sh (Scirpus hotarui); infant, 1.0 kg/ha, 3 DAT): 100% | % Weed Control (Sh) (Sh (Scirpus hotarui); infant, 1.0 kg/ha, 7 DAT): 100% | % Weed Control (Sh) (Sh (Scirpus hotarui); infant, 1.0 kg/ha, -2 DAT): 100% | % Weed Control (Sh) (Sh (Scirpus hotarui); infant, .5 kg/ha, 3 DAT): 100% | % Weed Control (Sh) (Sh (Scirpus hotarui); infant, .5 kg/ha, 7 DAT): 100% | % Weed Control (Sh) (Sh (Scirpus hotarui); infant, .5 kg/ha, -2 DAT): 100% | % Weed Control (Sh) (Sh (Scirpus hotarui); ordinary, 1.0 kg/ha, 3 DAT): 100% | % Weed Control (Sh) (Sh (Scirpus hotarui); ordinary, 1.0 kg/ha, 7 DAT): 100% | % Weed Control (Sh) (Sh (Scirpus hotarui); ordinary, 1.0 kg/ha, -2 DAT): 100% | % Weed Control (Sh) (Sh (Scirpus hotarui); ordinary, .5 kg/ha, 3 DAT): 100% | % Weed Control (Sh) (Sh (Scirpus hotarui); ordinary, .5 kg/ha, 7 DAT): 100% | % Weed Control (Sh) (Sh (Scirpus hotarui); ordinary, .5 kg/ha, -2 DAT): 100% | Rice Seedling Injury (%) [1, 2]: 5% | Rice Seedling Injury (%) [1, 3]: 0% | Rice Seedling Injury (%) [1, 4]: 10% | Rice Seedling Injury (%) [1, 5]: 0% | Rice Seedling Injury (%) [1, 6]: 0% | Rice Seedling Injury (%) [1, 7]: 10% | Rice Seedling Injury (%) [1, 8]: 20% | Rice Seedling Injury (%) [1, 9]: 10% | Rice Seedling Injury (%) [1, 10]: 40% | Rice Seedling Injury (%) [1, 11]: 15% | Rice Seedling Injury (%) [1, 12]: 10% | Rice Seedling Injury (%) [1, 13]: 20% | Rice Seedling Injury (%) [1, 14]: 15% | Rice Seedling Injury (%) [1, 15]: 10% | Rice Seedling Injury (%) [1, 16]: 30% | Rice Seedling Injury (%) [1, 17]: 15% | Rice Seedling Injury (%) [1, 18]: 5% | Rice Seedling Injury (%) [1, 19]: 25% | rice toxicity, infant vs ordinary seedlings ([1]; infant vs ordinary): No difference | rice toxicity, preemergence vs later treatments ([1]; preemergence treatments vs later): somewhat more toxic to rice
